These results are taken from patent US6623730B1, “Therapeutic uses of polymers and oligomers comprising gamma-hydroxybutyrate” (Tepha, Inc., priority 1999, dated 2003).

Where only a bound is given, the exact number is not on record here.

Data set [1] can be described thus: Digestibility of GHB oligomers in normal rats: serum GHB after gavage (GC-MS). The conditions noted are these: for time for serum GHB to decrease to baseline values / be absorbed and cleared from the circulation: after gavage with GHB monomer.
For data set [2] the following is noted: cited from earlier work.
A further data set relates to sleep. The note with it: rat, large dose; cited from earlier work.
[3] abbreviates: male, Sprague-Dawley, rat, serum, oral, 50 mg/kg.

Regarding `O=C(O)CCCO` [GHB Monomer, Gamma-hydroxybutyrate], in data set [1] (setting [3]), the concentration at 0.5 h was 182 ± 158 µM, the concentration at 1 h is 23.2 ± 2.05 µM, the concentration at 2 h is 12.8 ± 2.62 µM and the concentration at 4 h came to 14.9 ± 3.31 µM. Moreover, in data set [1] (rat serum, 0.5 hr after gavage with 50 mg/kg sodium GHB monomer in TWEEN, 50 mg/kg), the “GHB Monomer [GHB] concentration of GHB in serum” value was found to be 182 ± 158 µM. The “time for serum GHB to decrease to baseline values / be absorbed and cleared from the circulation” value in data set [1] (rat, listed as GHB monomer) was no more than 2 h. In addition, the “time for serum GHB to decrease to baseline values / be absorbed and cleared from the circulation” value in data set [1] (rat, listed as monomer) was in the range of 1 to 2 h. Also, in data set [2] (after oral administration), the “time of peak plasma concentration” value was 20 to 60 min. In addition, in data set [2] (in vivo), the “half-life of GHB” value was 35 min.
Take `CCOC(=O)CCCOC(C)=O` [ethyl 4-acetoxybutanoate]: the sleep duration result with sleep is “four”.
